Assay results published in patent publication US20240401144A2, “PRIMER-PROBE COMPOSITION, KIT, AND DETECTION METHOD” (ASCENTAWITS PHARMACEUTICALS, LTD., priority 2021, published 2024).

How the values were obtained:
KG-1 cell line = assay: Ex vivo cytotoxicity assay, leukemia cell lines; format: cell-based; conditions: Homo sapiens; Table 5: KG-1, Erythroleukemia, 72 h; AKR1C3 expression High
Procedure: (§1) Leukemia cell lines were suspended in RPMI medium supplemented with FBS (Biosera), while ALL PDX cells were cultured in QBSF medium (Quality Biological Inc.,) supplemented with Flt-3 ligand (20 ng/ml, BioNovus Life Sciences) or IL7 (10-20 ng/ml, Jomar Life Research). Cells were inoculated according to the optimal cell density and incubated for 3h or overnight (37° C., 5% CO2). PDX cells and leukemia cell lines were treated with OBI-3424 ([…]) or medium control for 48 or 72 h, respectively. Viability was determined using Alamar Blue reduction assay or Cell Titer-Glo Luminescent Cell Viability Assay (Promega). The half-maximal inhibitory concentration (IC50) was used to calculate the interpolation of nonlinear regression curves by GraphPad Prism 7 software.
(§2) The expression levels of AKR1C3 protein was determined by Western blot analysis. The ex vivo cytotoxicity of OBI-3424 was determined using CellTiter-Glo assay and calculated as 50% maximum inhibitory concentration (IC50).

P116 cell line = assay: Ex vivo cytotoxicity assay, leukemia cell lines; format: cell-based; conditions: Homo sapiens
Procedure: as §1, §2

[1] = system: C3A hepatocellular carcinoma cell line; assay: Ex vivo proliferation assay, 96 h exposure; format: cell-based; conditions: Homo sapiens, 96 h of exposure, AKR1C3 protein High, read-out: 3424 IC50
Procedure: (§3) Exponentially growing cells were inoculated. After 24 h, the test compound OBI-3424 was added. After addition of the test compound OBI-3424, plates were incubated in a standard tissue incubator at 37° C. for the indicated hours. At the end of the experiment, viable cells were detected using the CellTiter Glo (CTG) assay kit or AlamarBlue. Drug concentrations (IC50) resulting in 50% growth inhibition relative to untreated control were calculated using XLfit (IDBS, Boston, MA) or Prism 6 (GraphPad, San Diego, CA).
(§4) After exposing the hepatocellular carcinoma cell lines to compound OBI-3424 for 96 h and exposing the NSCLC cell lines to compound OBI-3424 for 72 h, the IC50 value was determined by ex vivo proliferation assay, and the expression of AKR1C3 protein in hepatocellular carcinoma cell lines was determined by Western blotting (tubulin was used as loading control). The expression data of AKR1C3 RNA in the hepatocellular carcinoma cell lines and in the NSCLC cell lines were from CrownBio database (https://db.crownbio.com/Crownbio/OncoExpress_Login.aspx).

[2] = system: HLF hepatocellular carcinoma cell line; assay: Ex vivo proliferation assay, 96 h exposure; format: cell-based; conditions: Homo sapiens, 96 h of exposure, AKR1C3 protein Low, read-out: 3424 IC50
Procedure: as §3, §4

[3] = system: SNU-182 hepatocellular carcinoma cell line; assay: Ex vivo proliferation assay, 96 h exposure; format: cell-based; conditions: Homo sapiens; SNU-182, 96 h of exposure; AKR1C3 protein Low; read-out: 3424 IC50
Procedure: as §3, §4

[4] = system: SNU-398 hepatocellular carcinoma cell line; assay: Ex vivo proliferation assay, 96 h exposure; format: cell-based; conditions: Homo sapiens; SNU-398, 96 h of exposure; AKR1C3 protein Low; read-out: 3424 IC50
Procedure: as §3, §4

[5] = system: SNU-449 hepatocellular carcinoma cell line; assay: Ex vivo proliferation assay, 96 h exposure; format: cell-based; conditions: Homo sapiens; SNU-449, 96 h of exposure; AKR1C3 protein High; read-out: 3424 IC50
Procedure: as §3, §4

[6] = system: SNU-475 hepatocellular carcinoma cell line; assay: Ex vivo proliferation assay, 96 h exposure; format: cell-based; conditions: Homo sapiens; SNU-475, 96 h of exposure; AKR1C3 protein High; read-out: 3424 IC50
Procedure: as §3, §4

[7] = system: HLE hepatocellular carcinoma cell line; assay: Ex vivo proliferation assay, 96 h exposure; format: cell-based; conditions: Homo sapiens, 96 h of exposure, AKR1C3 protein High, read-out: 3424 IC50
Procedure: as §3, §4

[8] = system: SK-HEP-1 hepatocellular carcinoma cell line; assay: Ex vivo proliferation assay, 96 h exposure; format: cell-based; conditions: Homo sapiens, SK-HEP1; SK-HEP-1, 96 h of exposure; AKR1C3 protein Low; read-out: 3424 IC50
Procedure: as §3, §4

[9] = system: cell lines derived from T-ALL with high AKR1C3 expression; assay: Ex vivo cytotoxicity in leukemia cell lines (summary); format: cell-based, human
Procedure: as §1
In order to evaluate the potential anti-leukemia activity of OBI-3424, ex vivo cytotoxicity assays were performed on a variety of leukemia cell lines. […] The difference in IC50 values between cell lines with high/medium AKR1C3 expression and low expression was statistically significant (P=0.0016).

[10] = system: NCI-H2228 NSCLC cell line; assay: Ex vivo proliferation assay, 72 h exposure; format: cell-based; conditions: Homo sapiens; NCI-H2228, 72 h of exposure; read-out: 3424 IC50
Procedure: as §3, §4

[11] = system: NCI-H2110 NSCLC cell line; assay: Ex vivo proliferation assay, 72 h exposure; format: cell-based; conditions: Homo sapiens; NCI-H2110, 72 h of exposure; read-out: 3424 IC50
Procedure: as §3, §4

NCI-H522 NSCLC cell line = assay: Ex vivo proliferation assay, 72 h exposure; format: cell-based; conditions: Homo sapiens; NCI-H522, 72 h of exposure; read-out: 3424 IC50
Procedure: as §3, §4

[12] = system: NCI-H1792 NSCLC cell line; assay: Ex vivo proliferation assay, 72 h exposure; format: cell-based; conditions: Homo sapiens; NCI-H1792, 72 h of exposure; read-out: 3424 IC50
Procedure: as §3, §4

NCIH2106 NSCLC cell line = assay: Ex vivo proliferation assay, 72 h exposure; format: cell-based; conditions: Homo sapiens; NCIH2106, 72 h of exposure; read-out: 3424 IC50
Procedure: as §3, §4

[13] = system: NCI-H1944 NSCLC cell line; assay: Ex vivo proliferation assay, 72 h exposure; format: cell-based; conditions: Homo sapiens; NCI-H1944, 72 h of exposure; read-out: 3424 IC50
Procedure: as §3, §4

[14] = system: NCI-H1563 NSCLC cell line; assay: Ex vivo proliferation assay, 72 h exposure; format: cell-based; conditions: Homo sapiens; NCI-H1563, 72 h of exposure; read-out: 3424 IC50
Procedure: as §3, §4

NCIH1755 NSCLC cell line = assay: Ex vivo proliferation assay, 72 h exposure; format: cell-based; conditions: Homo sapiens, NCI-H1755; NCIH1755, 72 h of exposure; read-out: 3424 IC50
Procedure: as §3, §4

NCI-H23 NSCLC cell line = assay: Ex vivo proliferation assay, 72 h exposure; format: cell-based; conditions: Homo sapiens; NCI-H23, 72 h of exposure; read-out: 3424 IC50
Procedure: as §3, §4

C[C@H](OP(=O)(N1CC1)N1CC1)c1ccc([N+](=O)[O-])c(Oc2cccc(C(=O)N(C)C)c2)c1 [OBI-3424]
IC50 (KG-1 cell line): 0.153 µM | IC50 (P116 cell line; Table 4: P116, T-ALL (Jurkat mutant), AKR1C3 expression Medium, CellTiter-Glo): 0.084 µM | IC50 (P116 cell line; Table 5: P116, Jurkat mutant, 72 h, AKR1C3 expression Low): 0.084 µM | IC50 [1]: 0.005 µM | IC50 [2]: > 1 µM | IC50 [3]: > 1 µM | IC50 [4]: > 1 µM | IC50 [5]: 0.045 µM | IC50 [6]: 0.015 µM | IC50 [7]: 0.113 µM | IC50 [8]: > 1 µM | IC50 values [9]: low nmol/L range | IC50 [10]: 0.00021 µM | IC50 [11]: 0.0011 µM | IC50 (NCI-H522 NSCLC cell line): > 1 µM | IC50 [12]: 0.0045 µM | IC50 (NCIH2106 NSCLC cell line): > 1 µM | IC50 [13]: 0.0023 µM | IC50 [14]: 0.0025 µM | IC50 (NCIH1755 NSCLC cell line): 0.0082 µM | IC50 (NCI-H23 NSCLC cell line): > 1 µM
